Results on three compounds are retold here after patent US20090155345A1, “METHODS FOR AFFECTING LIPOSOME COMPOSITION ULTRASOUND IRRADIATION” (BEN GURION UNIVERSITY OF THE NEGEV RESEARCH AND DEVELOPMENT …, priority 2005, published 2009).

For data set [1] the following is noted: cited from earlier work.
Data set [2] is described as follows: Chemical integrity of LFUS-irradiated drugs and lipids (HPLC, NMR, TLC). The class given is physicochemical. Conditions: 20 kHz, 3.3 W/cm^2, 30 to 180 s; HPLC (doxorubicin, MPS), NMR (cisplatin).
Experimental: Thin layer gel chromatography (TLC) was used to determine if any chemical changes were induced in the liposome lipids by exposure to ultrasonic irradiation.
MPS concentration and chemical integrity were determined using HPLC (Hewlett Packard Liquid Chromatograph 1090). ChemStation software (Hewlett Packard) controlled all modules and was used for analysis of the chromatography data. The analytical column used was a C18 5-micron Econosphere, length 150 mm, inner diameter 4.6 mm (Alltech, Carnforth, UK). Sample injection volume was 20 μL. Eluent was monitored at a wavelength of 245 nm with a 10 nm bandwidth.
Experiments were performed on an INOVA 500-MHz spectrometer (Varian, Palo Alto, Calif.) using standard pulse sequences. The Pt chemical shifts were assigned relative to the external reference signal of K2PtCl4, set at −1,624 ppm.

What is called pKa is the negative logarithm of the acid dissociation constant.

SMILES strings stand for the structures. Counter-ions that a name gives are not always drawn.

As to `C[C@H]1C[C@@H]2[C@H]([C@@H](O)C[C@@]3(C)[C@H]2CC[C@]3(O)C(=O)COC(=O)CCC(=O)O)[C@@]2(C)C=CC(=O)C=C12` [MPS, Methylprednisolone hemisuccinate sodium salt], the pKa in data set [1] is 4.65.
Consider `N.N.[Cl][Pt][Cl]` [cisplatin, Cisplatin], for which the “chemical changes of drug after LFUS” value in data set [2] is recorded as “does not induce any chemical changes”.
The same measure, in the same setting: the value for `COc1cccc2c1C(=O)c1c(O)c3c(c(O)c1C2=O)C[C@@](O)(C(=O)CO)C[C@@H]3O[C@H]1C[C@H](N)[C@H](O)[C@H](C)O1` [doxorubicin, Doxorubicin-HCl] was “does not induce any chemical changes”.
